Test results taken from ChEMBL document CHEMBL1150684, “New cytotoxic lupane triterpenoids from the twigs of Coussarea paniculata” (J Nat Prod, 2003).
Converted amounts (≈) assume the structure as drawn.

What follows are compounds tested on A2780 (assay: Cytotoxicity against human A2780 cells).
Type: functional, cell-based

Row | SMILES | IC50 [µg/mL]
1 | C=C(C)[C@@H]1CC[C@]2(C)CC[C@]3(C)[C@H](CC[C@@H]4[C@@]5(COC(C)=O)CC[C@H](OC(C)=O)C(C)(C)[C@@H]5CC[C@]43C)[C@@H]12 | 9.6 (≈ 18.2 µM)
2 | C=C(C)[C@@H]1CC[C@]2(C=O)CC[C@]3(C)[C@H](CC[C@@H]4[C@@]5(C)CC[C@@H](O)C(C)(C)[C@@H]5CC[C@]43C)[C@@H]12 | ≥ 20
3 | C=C(C)[C@@H]1CC[C@]2(C)CC[C@]3(C)[C@H](C[C@@H](O)[C@@H]4[C@]56CC[C@H](OC5=O)C(C)(C)[C@@H]6CC[C@]43C)[C@@H]12 | 18 (≈ 39.6 µM)
4 | C=C(C)[C@@H]1CC[C@]2(C(=O)O)CC[C@]3(C)[C@H](CC[C@@H]4[C@@]5(C)CCCC(C)(C)[C@@H]5CC[C@]43C)[C@@H]12 | 17.4 (≈ 39.5 µM)
5 | C=C(C)[C@@H]1CC[C@]2(COC(C)=O)CC[C@]3(C)[C@H](CC[C@@H]4[C@@]5(C)CC[C@H](OC(C)=O)C(C)(C)[C@@H]5CC[C@]43C)[C@@H]12 [BETULIN DIACETATE] | ≥ 20
6 | C=C(C)[C@@H]1CC[C@]2(C(=O)O)CC[C@]3(C)[C@H](CC[C@@H]4[C@@]5(C)CC[C@H](O)C(C)(C)[C@@H]5CC[C@]43C)[C@@H]12 [BETULINIC ACID] | ≥ 20
7 | C=C(C)[C@@H]1CC[C@]2(C(=O)O)CC[C@]3(C)[C@H](CC[C@@H]4[C@@]5(C)CC[C@@H](O)C(C)(C)[C@@H]5CC[C@]43C)[C@@H]12 [EPIBETULINIC ACID] | ≥ 20
8 | C=C(C)[C@@H]1CC[C@]2(C)CC[C@]3(C)[C@H](CC[C@@H]4[C@@]5(C)CC[C@H](OC(C)=O)C(C)(C)[C@@H]5CC[C@]43C)[C@@H]12 [LUPENYL ACETATE] | 16
9 | C=C(C)[C@@H]1CC[C@]2(C)CC[C@]3(C)[C@H](CC[C@@H]4[C@@]5(C)CC[C@H](O)C(C)(C)[C@@H]5CC[C@]43C)[C@@H]12 [LUPEOL] | ≥ 20
10 | CC1(C)CC[C@]2(C(=O)O)CC[C@]3(C)C(=CC[C@@H]4[C@@]5(C)CC[C@H](O)C(C)(C)[C@@H]5CC[C@]43C)[C@@H]2C1 [OLEANOLIC_ACID] | ≥ 20
11 | C[C@H]1[C@H](C)CC[C@]2(C(=O)O)CC[C@]3(C)C(=CC[C@@H]4[C@@]5(C)CC[C@H](O)C(C)(C)[C@@H]5CC[C@]43C)[C@H]12 [URSOLIC ACID] | ≥ 20
